Entries after “also recorded” stand apart in the source; their conditions may differ. Where two headings read alike, the source gives them in different places.
Experiments:
HepG2 = assay: Cytotoxicity on human cell line (MTT); assay type: cell-based; details: 72 h
Procedure: (§1) HeLa, HepG2, HEK293, and HCT116 cell lines were obtained from the American Type Culture Collection (ATCC) and maintained in Dulbecco’s modified Eagle’s medium (DMEM) (Invitrogen 11995–065) containing 25 mM glucose, 1 mM sodium pyruvate, and supplemented with 5 mM HEPES, 10% FBS, and penicillin-streptomycin (50 U/mL penicillin, 50 µg/mL streptomycin). Cells were seeded in a 96-well tissue culture plate (20,000 cells per well) and allowed to adhere for 24 hours, after which they were treated with a 12-step 2-fold serial dilution of each drug starting at 1 mM as the highest final concentration. Cells maintained in the medium supplemented with either 0.1% or 10% DMSO were used as negative and positive vehicle controls, respectively. The plates were incubated at 37 °C for 72 h, after which each well was incubated with 0.5 mg/mL of MTT reagent (MP Chemicals #02102227) for 4 h in the dark at 37 °C. The formazan crystals formed by living cells were solubilized with the addition of 100 µL of DMSO to each well. We measured the OD590nm using a SpectraMax plate reader. From the obtained OD values, percent cell viability was estimated by normalizing to the mean of 10% DMSO wells (set as 100% toxicity) and mean of the vehicle control wells (set as 0% toxicity). Dose-response curves were plotted using GraphPad Prism version 9.1.2.

HCT116 = assay: Cytotoxicity on human cell line (MTT); assay type: cell-based; details: HCT-116, 72 h
Procedure: as §1

HEK293 = assay: Cytotoxicity on human cell line (MTT); assay type: cell-based; details: 72 h
Procedure: as §1

HeLa = assay: Cytotoxicity on human cell line (MTT); assay type: cell-based; details: 72 h
Procedure: as §1

B. duncani (WA-1) [1] = assay: In vivo efficacy in mouse model of lethal B. duncani infection; set-up: species or system C3H/HeJ mice
Procedure: The finding that JPC-2067 is effective against B. duncani in vitro led us to investigate the activity of its prodrug JPC-2056 in the mouse model of lethal infection (C3H/HeJ mice) ([57]). […] To evaluate the efficacy of JPC-2056, two groups of 5 female mice each were infected with 1 × 10^4 B. duncani-infected erythrocytes and at day 1 post-infection (DPI-1) received either a vehicle (PEG-400) or 30 mg/kg of JPC-2056 administered orally once a day for 10 days. […] However, parasitemia in these mice continued to increase over time reaching peak levels at DPI-12 (Fig. 3A and B). These animals succumbed to lethal B. duncani infection at DPI-13 (Fig. 3A and C).
(§2) Both C3H/HeJ and CB17/SCID mice aged 5–6 weeks (4 to 5 mice per group in each of the studies described herein) were injected intravenously with (1 × 10^4 iRBCs) of B duncani (WA-1) and B. microti (LabS1) parasites, respectively. The infected mice were treated by oral gavage over 10 days (DPI −1 to 10). During the treatment, each mouse received 100 µL of either vehicle (PEG-400) or prodrug JPC-2056 (30 mg/kg). Percent parasitemia was determined by counting at least 3,000 RBCs from Giemsa-stained […] blood smears.

B. duncani (WA-1) [2] = assay: In vitro growth inhibition of B. duncani in human erythrocytes (SYBR Green-I); assay type: cell-based, Babesia duncani; details: continuous in vitro culture in human erythrocytes, read-out: IC50 B. duncani
[3] = test system: human cell lines (HepG2, HCT-116, HEK-293, and HeLa); assay: Cytotoxicity on human cell lines, average / overall, and therapeutic index; assay type: cell-based; details: up to 900 µM, HCT-116, HepG2, HEK-293
B. microti DHFR-TS [4] = target: T1, B. microti DHFR-TS (Babesia microti, UniProt A0A1R4AAV1); assay: Enzyme inhibition assay: DHFR activity of purified DHFR-TS; assay type: biochemical
T1 sequence (A0A1R4AAV1 entry or part of it): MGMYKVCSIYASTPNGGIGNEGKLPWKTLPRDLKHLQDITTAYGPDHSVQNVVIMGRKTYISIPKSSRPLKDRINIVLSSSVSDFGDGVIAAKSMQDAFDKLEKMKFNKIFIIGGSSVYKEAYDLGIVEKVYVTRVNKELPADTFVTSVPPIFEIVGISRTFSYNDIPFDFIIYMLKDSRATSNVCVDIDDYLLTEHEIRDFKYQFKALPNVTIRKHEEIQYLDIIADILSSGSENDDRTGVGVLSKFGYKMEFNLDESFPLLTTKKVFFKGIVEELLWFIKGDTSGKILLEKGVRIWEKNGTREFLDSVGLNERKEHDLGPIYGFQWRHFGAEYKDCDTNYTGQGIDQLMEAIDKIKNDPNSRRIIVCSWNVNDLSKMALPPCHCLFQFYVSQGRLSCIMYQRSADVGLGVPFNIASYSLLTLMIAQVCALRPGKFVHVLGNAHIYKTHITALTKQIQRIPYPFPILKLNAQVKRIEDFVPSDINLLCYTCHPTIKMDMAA
Procedure: (§3) The inhibition of DHFR activity with selected JPC derivatives was measured as previously described ([59]). Briefly, the purified enzyme (0.1 µM) (supporting information) (Fig. S7) was incubated with increasing concentrations of JPC-2067 or JPC-2056 in a reaction buffer containing 300 µM DHF and 300 µM NADPH. OD340 reduction rate (OD340/min) was measured for further calculation. The % inhibition was calculated using the formula:
(§4) =1−((OD340/min)sample−(OD340/min)negative control)/((OD340/min)positive control−(OD340/min)negative control)
(§5) The IC50 was determined from a sigmoidal dose-response curve using GraphPad Prism version 9.1.2.
(§6) Dihydrofolate reductase-thymidylate synthase (DHFR-TS) gene from B. duncani (BdDHFR-TS BdWA1_001462) and B. microti (BmDHFR-TS BMR1_02g03680) were cloned into pMAL-c4x by GenScript USA Inc. Both enzymes were expressed as fusion proteins with N’-terminal maltose binding protein (MBP) tag. Constructs of pMAL-c4x-BdDHFR-TS and pMAL-c4x-BmDHFR-TS were transformed by heat shock into E. coli BL-21(DE3). E. coli BL-21(DE3) harboring pMAL-c4x-DHFR-TS was grown overnight in 2 ml LB ampicillin (100 µg/mL). Cultures were diluted 100-fold in fresh LB medium with 0.2% glucose and grown to A600 of ~0.5 at 37°C. DHFR-TS expression was induced by the addition of 0.5 mM isopropyl thiogalactoside (IPTG) followed by growth for overnight at 16°C or at room temperature (RT). The cells were harvested by centrifugation (8,000 × g × 10 min, 4°C), washed by resuspension in water, and re-centrifuged. Cells were used directly for purification or kept frozen at -20°C. Prior to enzyme purification, cells were re-suspended in binding buffer containing 25 mM Tris-HCl pH 8, 500 mM NaCl, 0.5% glycerol, and 50mM L-arginine. Cells were supplemented benzonase DNAse (250U/µl) and 3-((3-cholamidopropyl) dimethylammonio)-1-propanesulfonate (CHAPS) (0.002%) and were disrupted by sonication on ice using Omni Sonic Ruptor 400 Ultrasonic Homogenizer (15-sec burst at 70% amplitude, 3 times, with 30-sec cooling intervals). A soluble supernatant was prepared by centrifugation (16,000 × g × 20 min) of the cells sonicate.
(§7) Recombinant DHFR-TSs were purified from the clear cell extract supernatant using amylose resin (NEB), methotrexate-agarose beads, and in some cases size exclusion chromatography (SEC). Briefly, soluble supernatant was incubated with amylose beads in binding buffer with gentle agitation for 1h at 4°C. Following enzyme adsorption, the affinity matrix was transferred to a column and unbound proteins were removed by washing with binding buffer. Purified enzymes were eluted with elution buffer containing 10 mM maltose. Amylose elution fractions were loaded onto MTX-agarose resin and purified DHFR-TS enzymes were eluted using 2 mM dihydrofolic acid (DHF). […]

B. duncani DHFR-TS [5] = target: T2, B. duncani DHFR-TS (Babesia duncani, UniProt A0AAD9UQZ8); assay: as above; assay type: biochemical
T2 sequence (A0AAD9UQZ8 entry or part of it): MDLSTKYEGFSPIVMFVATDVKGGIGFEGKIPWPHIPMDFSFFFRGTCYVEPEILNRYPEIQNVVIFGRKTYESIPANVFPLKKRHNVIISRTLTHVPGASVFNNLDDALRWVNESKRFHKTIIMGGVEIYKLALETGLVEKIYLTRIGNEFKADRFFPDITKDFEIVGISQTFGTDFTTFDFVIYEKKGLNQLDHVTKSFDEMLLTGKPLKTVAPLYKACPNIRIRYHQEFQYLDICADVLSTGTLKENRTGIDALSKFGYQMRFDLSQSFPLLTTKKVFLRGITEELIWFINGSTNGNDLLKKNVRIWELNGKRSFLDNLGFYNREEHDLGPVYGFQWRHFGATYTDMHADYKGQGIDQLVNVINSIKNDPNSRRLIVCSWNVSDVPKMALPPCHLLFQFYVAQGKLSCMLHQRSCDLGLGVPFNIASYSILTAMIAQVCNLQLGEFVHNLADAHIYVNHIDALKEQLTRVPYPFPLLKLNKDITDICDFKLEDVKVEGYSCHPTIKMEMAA
Procedure: as §3, §4, §5, §6, §7

B. microti (LabS1) = assay: In vivo efficacy in SCID mouse model of B. microti infection; set-up: species or system CB17/SCID mice
Procedure: Building on the promising efficacy of JPC-2056 against B. duncani parasites in vivo, we extended our investigation to assess the efficacy of this compound against B. microti (ATCC LabS1) in the SCID (severely combined immunodeficient) mouse model of infection following inoculation with a 1 × 10^4 infected erythrocytes.
as §2

B. duncani = test system: B. duncani; set-up: method as in PMID 37055610; details: previous studies; read-out: IC50 against B. duncani; cited from earlier work
B. duncani DHFR-TS [6] = target: T2, B. duncani DHFR-TS; set-up: method as in PMID 37055610; details: recent studies; cited from earlier work
B. microti DHFR-TS [7] = target: T1, B. microti DHFR-TS; set-up: method as in PMID 37055610; details: recent studies; cited from earlier work
[8] = in vivo; cited from earlier work
[9] = 30 mg/kg orally once a day for 10 days
[10] = 0.1 µM enzyme, 300 µM DHF, 300 µM NADPH

Compound | IC50 (HepG2) | IC50 (HCT116) | IC50 (HEK293) | IC50 (HeLa) | IC50 (B. duncani (WA-1) [2]; Babesia duncani, Erythrocyte) | IC50 (B. duncani (WA-1) [2]) | cytotoxicity (effect on human cell lines) [3] | other results
CC(C)NC(=N)NC(=N)NOCCCOc1ccc(OC(F)(F)F)cc1Cl [JPC-2056] | 1000 µM | 1000 µM | 1000 µM | > 900 µM | 0.8694 ± 0.004 µM | 0.869 µM | no discernible effect | day animals succumbed to lethal infection (B. duncani (WA-1) [1]; [9]): 13 DPI; parasite emergence (B. duncani (WA-1) [1]; [9]): delay in parasite emergence; parasitemia compared to vehicle-treated mice (B. duncani (WA-1) [1]; 30 mg/kg orally once a day for 10 days (DPI-1 to 10)): reduced peak parasitemia; inhibitory activity against B. microti DHFR-TS (B. microti DHFR-TS [4]; Fig. S3B): no discernible inhibitory activity; inhibitory activity against B. duncani DHFR-TS (B. duncani DHFR-TS [5]; Fig. S3A): no discernible inhibitory activity; adverse effects (B. microti (LabS1); 30 mg/kg once a day for 10 days): without observable adverse effects; outcome of B. microti infection (B. microti (LabS1); 30 mg/kg once a day for 10 days (DPI-1 to 10)): clearance of infection with no parasites detected up to DPI-45; also recorded: elimination of parasites
CC1(C)NC(=N)NC(=N)N1OCCCOc1ccc(OC(F)(F)F)cc1Cl [JPC-2067] | 1150 µM | 1000 µM | 1000 µM | > 900 µM | 0.0089 ± 0.002 µM | 0.00893 µM | no discernible effect | EC50 (B. microti DHFR-TS [4]; [10]): 0.0147 µM; EC50 (B. duncani DHFR-TS [5]; [10]): 0.001 µM
CC1(C)N=C(N)N=C(N)N1OCCCOc1cc(Cl)c(Cl)cc1Cl [WR99210] | – | – | – | – | – | – | – | IC50 (B. duncani): 0.0005 µM; inhibition of B. duncani DHFR-TS activity (B. duncani DHFR-TS [6]): inhibits the activity; inhibition of B. microti DHFR-TS activity (B. microti DHFR-TS [7]): inhibits the activity; bioavailability [8]: poor bioavailability; gastrointestinal tolerability [8]: caused gastrointestinal complications
